Experimental data taken from patent US20250262262A1, “a-ACID AND/OR B-ACID BASED COPOSITIONS FROM HUMULUS FOR USE IN A HUMAN AND/OR VETERINARY APPLICATION” (Orotech NV, priority 2022, published 2025).

Tested on: Histomonas meleagridis
Assay: Growth and viability of in vitro cultivated Histomonas meleagridis
Format: cell-based
Settings: for Histomonas meleagridis cells counted: extrudate corresponding to 200 μg tetra-hydro-iso-α-acid/ml, dimetridazole 400 μg/ml
Experimental: The effect of a tetra-hydro-iso-α-acids milled extrudate on the growth of Histomonas meleagridis in vitro was investigated. Therefore, a milled extrudate of tetra-hydro-iso-α-acids (corresponding to an amount of 200 μg tetra-hydro-iso-α-acid/ml), a positive control (dimetridazole, concentration of 400 μg/ml) and a negative control (distilled water without addition of any substance) were used. Histomonas meleagridis cells were counted before and after 24, 48 and 72 hours of incubation.

SMILES: Cc1ncc([N+](=O)[O-])n1C [Dimetridazole, dimetridazole]
- Histomonas meleagridis cells counted (0 h (before incubation)): 1 × 10^5
- Histomonas meleagridis cells counted (24 h of incubation): 0
- Histomonas meleagridis cells counted (48 h of incubation): 0
- Histomonas meleagridis cells counted (72 h of incubation): 0
- Effect on Histomonas meleagridis cells (in words) (in vitro, versus negative control): total reduction
